# Several values for one entry are separate records, joined by “and”; a condition that tells them apart may be missing. Equal values may be shown once.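 1) Cells in 96-well plates. 2) Compound, 48 h, 5 concentrations. 3) Linear interpolation between surrounding doses. 4) Unreached endpoint = highest concentration. Abbreviation: GI50, concentration required for 50% inhibition of growth. TGI is the concentration that stops growth completely.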
# Assays:
# Assay in all cases: NCI tumour cell line growth inhibition, 48 h
# [1] = test system: SN12C renal
# [2] = test system: U251 CNS
# [3] = test system: HOP-62 NSCLC
# [4] = test system: TK-10 renal
# [5] = test system: M14 melanoma
# [6] = test system: HCT-15 colon
# [7] = test system: UACC-257 melanoma
# [8] = test system: 786-0 renal
# [9] = test system: KM12 colon
# [10] = test system: SK-MEL-28 melanoma
Structure (SMILES),GI50 [1],TGI [1],GI50 [2],TGI [2],GI50 [3],TGI [3],GI50 [4] [µM],TGI [4],GI50 [5],TGI [5],GI50 [6],TGI [6],GI50 [7],TGI [7],GI50 [8],TGI [8],GI50 [9],TGI [9],GI50 [10],TGI [10]
C=CCN=C(N/N=C/c1ccc([N+](=O)[O-])o1)NS(=O)(=O)c1cc(C(=O)Nc2ccccc2)c(Cl)cc1SCC(N)=O,29 µM,> 100 µM,22.9 µM,95.8 µM,53.9 µM,> 100 µM,51.8,> 100 µM,69.8 µM,> 100 µM,> 100 µM,> 100 µM,19.5 µM,49 µM,63.7 µM,> 100 µM,17.1 µM,32.5 µM,37.6 µM,> 100 µM
OCCCCC#Cc1ccccc1C#Cc1ccc(C(F)(F)F)cc1,15.8 µM,29.6 µM,14.8 µM,28.6 µM,11.4 µM,24.3 µM,11.9,25.3 µM,17.1 µM,38.3 µM,12.5 µM,25.4 µM,14.9 µM,28.2 µM,4.72 µM,18.1 µM,13.9 µM,29.8 µM,8.4 µM,21.7 µM
Nc1ncnc2c1nc(Cl)n2C1OC(CO)C(O)C1O (configuration not stated),,> 100 µM,,> 100 µM,,> 100 µM,,> 32.7 µM,,> 100 µM,,> 100 µM,,> 100 µM,,> 100 µM,,> 100 µM,,> 100 µM
O=c1cccccc1[O-].O=c1cccccc1[O-].O=c1cccccc1[O-].[Sm+3],26.8 µM,> 100 µM,13.8 µM,> 100 µM,37.1 µM,> 100 µM,,> 100 µM,,> 100 µM,,> 100 µM,,> 100 µM,,> 100 µM,,> 100 µM,,
COc1cc(/C=C2\C(=O)N(C)c3ccccc32)cc(OC)c1OC,17 µM,69.5 µM,7.49 µM,41.7 µM,20.2 µM,54 µM,31.1,> 100 µM,16.8 µM,46.9 µM,10.3 µM,85.5 µM,21.4 µM,55 µM,25.3 µM,97.4 µM,11.2 µM,30.1 µM,16 µM,44.4 µM
[Cl-].[Gd+3].[O-]/N=C(\c1ccccc1)c1ccccn1.[O-]/N=C(\c1ccccc1)c1ccccn1.[O-]/N=C(\c1ccccc1)c1ccccn1,66.8 µM,> 100 µM,68.9 µM,> 100 µM,41.8 µM,> 100 µM,34.9,> 100 µM,51.4 µM,> 100 µM,48.4 µM,> 100 µM,86.5 µM,> 100 µM,57.8 µM,> 100 µM,37.3 µM,> 100 µM,61.6 µM,> 100 µM
COc1ccc(Cc2nc3cc(OC)c(OC)cc3c(=O)[nH]2)cc1,11.2 µM,> 100 µM,10.5 µM,> 100 µM,8.69 µM,> 81.5 µM,11.8,54 µM,4.13 µM,> 41.2 µM,3.57 µM,> 100 µM,6.42 µM,32.1 µM,7.31 µM,> 100 µM,2.68 µM,10.4 µM,11.5 µM,65.1 µM
OCC(O)C(O)C(O)C(O)c1nn[nH]n1 (configuration not stated),,> 100 µM,,> 100 µM,,> 100 µM,,,,> 100 µM,,> 100 µM,,,,> 100 µM,,> 100 µM,,
COc1ccc(OCC(O)CN2CCN(c3ccc(Cl)cc3)CC2)cc1 (configuration not stated),> 100 µM,> 100 µM,79.3 µM,> 100 µM,28.4 µM,> 100 µM,,,> 100 µM,> 100 µM,> 100 µM,> 100 µM,> 100 µM,> 100 µM,> 100 µM,> 100 µM,> 100 µM,> 100 µM,> 100 µM,> 100 µM
NC(=O)c1ncn(C2OC(CO)C(O)C2O)c1N (configuration not stated),> 100 µM,> 100 µM,> 100 µM,> 100 µM,> 100 µM,> 100 µM,> 100,> 100 µM,> 100 µM,> 100 µM,> 100 µM,> 100 µM,> 100 µM,> 100 µM,> 100 µM,> 100 µM,> 100 µM,> 100 µM,> 100 µM,> 100 µM
COC(=O)[C@]1(C)CCC[C@]2(C)[C@@H]1CCC13C[C@@H](C=CO1)[C@@H](C)CC32O (some centres not stated),> 100 µM,> 100 µM,> 100 µM,> 100 µM,> 100 µM,> 100 µM,,,50.3 µM,> 100 µM,> 100 µM,> 100 µM,70 µM,> 100 µM,89.5 µM,> 100 µM,,,> 100 µM,> 100 µM
COC(=O)C1CCC(=O)N1/C(C)=N/NC(=O)Nc1ccc(Cl)c(Cl)c1 (configuration not stated),,> 100 µM,,> 100 µM,,> 100 µM,,> 100 µM,,> 100 µM,,68.7 µM,,> 100 µM,,> 100 µM,,> 100 µM,,> 100 µM
c1cncc(C2ONC3=NCCN32)c1 (configuration not stated),14.6 µM,31.7 µM,16.5 µM,64.5 µM,30 µM,91.1 µM,10.9,70.6 µM,64.3 µM,> 100 µM,11.5 µM,54.7 µM,> 100 µM,> 100 µM,6.22 µM,39.2 µM,21.2 µM,> 100 µM,> 100 µM,> 100 µM
Clc1ccc2c(NCCCN3CCN(c4nc(N5CCOCC5)nc5ccccc45)CC3)ccnc2c1,,,2.15 µM,5.15 µM,,,2.04,4.56 µM,1.39 µM,2.85 µM,,,1.77 µM,3.42 µM,1.59 µM,3.03 µM,,,1.88 µM,3.37 µM
COc1ccc(-c2cc(-c3ccccc3)nc(NCCNc3ccnc4cc(Cl)ccc34)n2)cc1,1.61 µM,3.3 µM,1.75 µM,3.38 µM,1.87 µM,3.7 µM,1.82,3.44 µM,,,0.591 µM,2.09 µM,1.92 µM,3.93 µM,1.72 µM,3.35 µM,1.84 µM,3.52 µM,1.73 µM,3.35 µM
COc1cc(N(CCC#N)CCC#N)ccc1/C(N=Nc1ccc(C(=O)O)cc1)=N/NC(=O)c1cc(Br)ccc1O,102 µg/mL,> 150 µg/mL,> 150 µg/mL,> 150 µg/mL,,,,,72 µg/mL,> 150 µg/mL,35.8 µg/mL,95 µg/mL,> 150 µg/mL,> 150 µg/mL,97.8 µg/mL,> 150 µg/mL,50.3 µg/mL,> 150 µg/mL,> 150 µg/mL,> 150 µg/mL
CC(=O)[O-].[Mn+3].[O-]c1ccc(Cl)cc1C=NCCN=Cc1cc(Cl)ccc1[O-],> 100 µM,> 100 µM,> 100 µM,> 100 µM,,,> 100,> 100 µM,71.6 µM,> 100 µM,> 100 µM,> 100 µM,> 100 µM,> 100 µM,> 100 µM,> 100 µM,> 100 µM,> 100 µM,> 100 µM,> 100 µM
CC1CC(C)C(C(O)CC2CC(=O)N(c3ccccc3)C(=O)C2)C(O)C1 (configuration not stated),,> 100 µM,,> 100 µM,,> 100 µM,,> 100 µM,,> 100 µM,,,,> 100 µM,,> 100 µM,,> 100 µM,,> 100 µM
NC(N)=N/N=C/c1c(-c2ccc(Cl)c([N+](=O)[O-])c2)nc2sc3ccccc3n12,0.529 µM,1.38 µM,0.0951 µM,0.177 µM,11.6 µM,28.1 µM,0.95,1.91 µM,0.136 µM,12 µM,,,8.38 µM,18 µM,0.951 µM,1.75 µM,0.842 µM,2.54 µM,,
C=C(Cl)[C@@](Cl)(CBr)CC[C@@H](Br)C(C)(C)Cl,,17.3 µM,0.971 µM,,,0.606 µM and 0.304 µM,0.228,0.545 µM and 0.679 µM,,40.9 µM and 28.8 µM,0.866 µM,4.99 µM and 1.97 µM,,6.2 µM and 1.83 µM,0.0733 µM,0.286 µM and 0.247 µM,,2.36 µM and 0.689 µM,,
CN(C)c1ccc(O[Si](Oc2ccc(N(C)C)cc2)(Oc2ccc(N(C)C)cc2)Oc2ccc(N(C)C)cc2)cc1,,> 100 µM,,> 100 µM,,> 100 µM,,> 100 µM,,> 100 µM,,,,> 100 µM,,> 100 µM,,> 100 µM,,> 100 µM
CCOc1ccccc1NC(=O)C1=C(C)NC(C)=C(C(=O)Nc2ccccc2OCC)C1c1ccc([N+](=O)[O-])cc1,,> 100 µM,,> 100 µM,,> 100 µM,,,,> 100 µM,,> 100 µM,,> 100 µM,,> 100 µM,,> 100 µM,,> 100 µM
CCOc1ccc(Nc2nc(-c3c(C)nc4ncccn34)cs2)cc1,0.0769 µM,28.2 µM,,,0.0306 µM,18.4 µM,12.8,43 µM,0.017 µM,13.6 µM,0.0467 µM,15.4 µM,6.77 µM,21.3 µM,0.0392 µM,18.4 µM,0.034 µM,13.8 µM,0.0673 µM,20.7 µM
COC(=O)c1ccc2[nH]c(O)c(C(=Nc3ccc(N(C)C(=O)CN4CCN(C)CC4)cc3)c3ccccc3)c2c1,0.267 µM,11.6 µM,,,2.1 µM,13 µM,3.05,17 µM,0.729 µM,2.42 µM,1.77 µM,8.4 µM,2.24 µM,5 µM,1.07 µM,2.83 µM,0.0353 µM,5.52 µM,1.62 µM,3.34 µM
c1ccc2c3c([nH]c2c1)C1C2CCCCN2C(c2ccncc2)N1CC3 (configuration not stated),,> 100 µM,,> 100 µM,,> 100 µM,,,,> 100 µM,,> 100 µM,,> 100 µM,,> 100 µM,,> 100 µM,,> 100 µM
CC(=O)OCC1OC(n2c(=S)n(-c3ccccc3)c(=O)c3cc(Br)cc(Br)c32)C(OC(C)=O)C(OC(C)=O)C1OC(C)=O (configuration not stated),,> 100 µM,20 µM and 91.9 µM,> 100 µM,19.5 µM and > 100 µM,54.8 µM and > 100 µM,,,28.6 µM and > 100 µM,> 100 µM,,> 100 µM,46.6 µM and > 100 µM,> 100 µM,25.7 µM and 98.7 µM,> 100 µM,,> 100 µM,,> 100 µM
Nc1ncc(C2[C@H](CNC(=O)c3cc(Br)c[nH]3)C(CNC(=O)c3cc(Br)c[nH]3)[C@@H]2c2cnc(N)[nH]2)[nH]1 (some centres not stated),21.4 µM,> 50 µM,> 50 µM,> 50 µM,> 50 µM,> 50 µM,> 50,> 50 µM,> 50 µM,> 50 µM,> 50 µM,> 50 µM,> 50 µM,> 50 µM,> 50 µM,> 50 µM,> 50 µM,> 50 µM,,
Cc1ccnc(Nc2ccc([N+](=O)[O-])c(NCCN3CCOCC3)n2)c1,0.0425 µM and 0.048 µM,> 100 µM,0.00524 µM,> 100 µM,0.00657 µM,71.8 µM,18.5,62 µM,,45.2 µM,0.0061 µM,31.5 µM,,,0.00821 µM and 0.0149 µM,23.7 µM,0.00464 µM,,,30.3 µM
NNC(=O)N/N=C1\CN(c2ccc(Cl)cc2Cl)C(=O)C(=O)C1c1nc2ccccc2o1 (configuration not stated),,> 100 µM,,> 100 µM,,> 100 µM,,,,> 100 µM,,,,> 100 µM,,> 100 µM,,> 100 µM,,> 100 µM

# Source: PubChem BioAssay (NCI)
